{
  "source": "patent US8846393B2",
  "about": "“Methods of improving stem cell homing and engraftment” (Gamida-Cell Ltd., priority 2005, dated 2014)",
  "key": {"NOD/SCID mice": {"tested_on": "NOD/SCID mice", "assay": "In vivo analysis of homing of CFSE-labeled cells to bone marrow", "text": "FIGS. 1a-1i are a graphic representation of flow cytometry analysis of the effect of nicotinamide on homing of hematopoietic stem cells into bone marrow of NOD/SCID mice. Non-cultured mononuclear cells or their entire progeny following 3-week expansion with cytokines and nicotinamide (cytokines+NA), or cytokines alone (cytokines) were labeled with CFSE and infused into sublethally irradiated NOD/SCID mice (10×10^6 cells/mouse for the non-cultured group containing 5×10^4 CD34+ cells and the total progeny of 5×10^4 CD34+ cells following 3-week expansion with or without nicotinamide; 20×10^6 cells/mouse containing 180×10^4 CD34+ cells). FIG. 1a is a histogram of the results of flow cytometry of recipient's bone marrow cells showing homing of CFSE+/CD34+ cells after transplantation. FIG. 1b is a histogram of the results of flow cytometry of recipient's bone marrow cells showing homing of total CFSE+ cells after transplantation. Homing of human cells is presented as number of positive events (cytometry) per 100,000 BM cells analyzed. Each bar represents the average ±SE of 3 independent experiments (6-7 mice/experimental group). […] Total human cells that home to the BM are gated (see area R2) based on low side scatter (y axis) and log fluorescence distribution of CFSC expression (x axis) (FIGS. 1c-1f). The bright fluorescence of CFSE was sufficient to separate labeled human cells from unlabeled murine cells by at least 1 log. Cells gated in R2 were then analyzed for CFSE (x axis) and CD34-APC (y axis) (FIGS. 1g-1i). […] After labeling, cells were washed three times in PBS supplemented with 10% FCS and analyzed by flow cytometry for fluorescence intensity, then injected intravenously into sublethally irradiated NOD/SCID mice (10-20 million cells per mouse). […] Homing of human cells was detected by flow cytometry via visualization of CFSE-stained cells over a background of unlabeled murine cells. The bright fluorescence of CFSE was sufficient to separate labeled human cells from unlabeled murine cells by at least 1 log. […]"}, "CD34+ cells": {"tested_on": "CD34+ cells", "assay": "In vitro transwell migration assay, CXCL12-induced", "format": "cell-based, human", "settings": "CXCL12 100 ng/ml, 4 hours, CD34+ cells after 3-week culture with cytokines+NA, compared to cytokines alone or non-cultured cells", "protocol": "FIG. 2 is a histogram showing the effect of nicotinamide on in-vitro migration of hematopoietic cells. CXCL12 (100 ng/ml)-induced transwell migration of the purified CD34+ cells either before (non-cultured) or after 3-week culture with cytokines and nicotinamide (cytokines+NA) or cytokines alone (cytokines) (n=3, *p<0.02, **p=0.05) was measured as described hereinbelow. Note the enhanced migration of cells cultured in the presence of nicotinamide; Purified CD34+ cells were cultured in culture bags (American Fluoroseal Co., Gaithersburg, Md.) at 1×10^4 cells/ml in MEMα medium, 10% fetal calf serum (FCS) and cytokines: Thrombopoietin (TPO), interleukin-6 (IL-6), FLT-3 ligand and stem cell factor (SCF), each at a final concentration of 50 ng/ml (Perpo Tech, Inc., Rocky Hill, N.J.), with or without 5 mM nicotinamide (NA) (Sigma Aldrich, Milwaukee, Wis.) and incubated at 37° C. in a humidified atmosphere of 5% CO2 in air. […] Until week 3, the cultures were topped weekly with the same volume of fresh medium and then weekly demi-depopulated. Cell counting, colony forming unit (CFUc) assay and immunophenotype analysis were performed as described hereinbelow. […] After 4 hours, cells were collected from both chambers and counted by flow cytometry (FACSsort, Becton Dickinson and Co, San Jose, Calif., USA). […]"}},
  "data": [
    {"smiles": "NC(=O)c1cccnc1", "note": "[nicotinamide]", "values": [
      {"measurement": "homing of CD34+ cells to bone marrow relative to non-cultured CD34+ cells", "setting": "NOD/SCID mice; 3-week culture with cytokines + nicotinamide, 24 hours post transplantation, n=21, p<0.05", "result": 6, "unit": "fold"},
      {"measurement": "homing of cultured cells (MNC) compared to nicotinamide-untreated cells", "setting": "NOD/SCID mice; 3-week culture with cytokines + nicotinamide, total CFSE+ cells, 24 hours post transplantation, n=21, p<0.05", "result": 2, "unit": "fold"},
      {"measurement": "homing to bone marrow over identical cells cultured without nicotinamide", "setting": "NOD/SCID mice; summary statement on Example 2, mononuclear cells exposed to nicotinamide before transplantation", "result": "sixfold"},
      {"measurement": "CXCL12-induced migration", "setting": "CD34+ cells", "result": "significantly higher"}
    ]}
  ]
}
